Results from US20260364184A1, “COMPOUND BASED ON OXOISOINDOLINYL-SUBSTITUTED TETRAHYDROPYRIMIDINE-DIONE AND USE THEREOF” (GLUETACS THERAPEUTICS (SHANGHAI) CO., LTD., priority 2023, published 2026).

Legend:
Assay type in all cases: cell-based
[1] = system: Human Acute T Lymphoblastic Leukemia Cells (Molt-4); assay: Inhibition of Molt-4 cell proliferation (CellTiter luminescent viability); details: Homo sapiens, MOLT-4, 96 h, Table IA2, IRAK4 inhibitor-based, 96 hours; for inhibition at 0.01 µM: Molt-4, 10 nM, read-out: Inhibition Rate at 10 nM (%); for inhibition at 0.5 µM: Molt-4, 500 nM, read-out: Inhibition Rate at 500 nM (%)
Protocol: (§1) The tumor cells used herein were cultured in a cell culture medium listed in table 3 at 37 °C in an incubator with 5% CO2. Prior to experimentation, all cell lines used were correctly identified by STR profiling, and tested negative for mycoplasma contamination using a mycoplasma detection kit through routine screenings.
(§2) The IC50 values of the compounds of the present disclosure (including the compounds in Table 1, Table 2, and Examples 1-468) were determined using the CellTiter-Meiluncell Luminescent Cell Viability Assay Kit from Dalian Meilun Biotech Co., Ltd. The detailed procedure is as follows: Tumor cells were seeded in 96-well cell culture plates at the densities specified in Table 4. On the following day, the test compounds of the present disclosure were subjected to serial dilution. The dilution can be performed according to one of the following two methods: • (1) The first dilution method: The test compounds of the present disclosure (including the compounds in Table 1, Table 2, and Examples 1-468) were subjected to 5-fold serial dilutions starting from a highest concentration of 2000 μM, resulting in a total of 9 concentrations from high to low (2000, 400, 80, 16, 3.2, 0.64, 0.128, 0.0256, 0.00512 μM). Subsequently, 0.5 μL of the test compound dilution was transferred into the 96-well plate containing the cells, with each well containing 100 μL of cell culture medium. […] Into the 96-well plate, the diluted test compounds and corresponding detection reagents were added, resulting in final test compound concentrations of 500 nM and 10 nM, respectively. The experimental procedure is described below using the diluted 2 μM test compound as an example.
(§3) 0.5 μL of the aforementioned diluted compound of the present disclosure (including the compounds in Table 1, Table 2, and Examples 1-468) was added to the seeded cells in 100 μL of medium, yielding a final test compound concentration of 10 nM. After the cells were treated with the compounds of the present disclosure for a specified period, the cell viability assay reagent was added to the culture medium according to the kit's instructions to determine cell viability. […] All controls were treated using the same procedure as the compounds of the present disclosure. The growth inhibition curves for the compounds of the present disclosure were plotted using Prism GraphPad software, and the IC50 values were calculated therefrom.

IRAK4 = biological target: T1, IRAK4 (Homo sapiens, UniProt Q9NWZ3); assay: Western blot degradation of IRAK4; details: hPBMC Cell; 24 hours
T1 construct: expression of target proteins in cells; endogenous in cells
T1 sequence (Q9NWZ3 1-460): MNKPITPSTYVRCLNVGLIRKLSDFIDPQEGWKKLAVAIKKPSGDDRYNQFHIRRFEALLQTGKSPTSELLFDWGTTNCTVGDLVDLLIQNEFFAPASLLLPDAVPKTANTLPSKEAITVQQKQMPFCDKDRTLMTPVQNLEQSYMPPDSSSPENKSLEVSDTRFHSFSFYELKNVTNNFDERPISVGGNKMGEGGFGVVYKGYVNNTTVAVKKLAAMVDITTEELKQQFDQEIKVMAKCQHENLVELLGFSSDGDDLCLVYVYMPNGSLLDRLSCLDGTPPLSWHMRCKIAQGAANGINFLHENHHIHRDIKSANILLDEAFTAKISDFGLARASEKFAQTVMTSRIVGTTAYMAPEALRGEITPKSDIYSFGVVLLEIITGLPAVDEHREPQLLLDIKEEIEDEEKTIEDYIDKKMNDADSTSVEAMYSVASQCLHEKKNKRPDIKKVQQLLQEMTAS
Outline: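 Immunoblot of drug-treated versus DMSO-treated cell lysates, with densitometric quantification. Values: DC50 (50% band loss, fitted) and loading-control-normalised % remaining or degradation.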

[2] = system: Human Multiple myeloma cell line (MM.1S); assay: Inhibition of MM.1S cell proliferation (CellTiter luminescent viability); details: Table IA1, IRAK4 inhibitor-based, 96 hours, read-out: Inhibitory activity (IC50, nM) on tumor cell proliferation, MM.1S
Protocol: as §1, §2, §3

[3] = system: Human myeloid monocytic leukemia cell line (MV-4-11); assay: Inhibition of MV-4-11 cell proliferation (CellTiter luminescent viability); details: Homo sapiens, MV4-11, Table IA3, IRAK4 inhibitor-based, 96 hours; for inhibition at 0.01 µM: MV-4-11, 10 nM, read-out: Inhibition Rate at 10 nM (%); for inhibition at 0.5 µM: MV-4-11, 500 nM, read-out: Inhibition Rate at 500 nM (%)
Outline: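 Cells are seeded in 96-well plates, cultured at 37 °C, 5% CO2, and treated next day with 5-fold serial compound dilutions (stock series from 2000 μM; 0.5 μL into 100 μL medium). Viability is read by CellTiter-Meiluncell luminescence after the set exposure, and IC50 is taken from growth-inhibition curves.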

| SMILES | inhibition at 0.01 µM [1] [%] | inhibition at 0.5 µM [1] [%] | Degradation of substrate protein IRAK4 (substrate protein remaining %) (IRAK4) | IC50 [2] [nM] | inhibition at 0.01 µM [3] [%] | inhibition at 0.5 µM [3] [%] |
| --- | --- | --- | --- | --- | --- | --- |
| COc1cc2nn([C@H]3CC[C@H](CN4C[C@H]5C[C@@H]4CN5c4ccc5c(c4)C(=O)N(N4CCC(=O)NC4=O)C5=O)CC3)cc2cc1NC(=O)c1cccc(C(F)(F)F)n1 [GT-08650, N-(2-((1R,4r)-4-(((1R,4R)-5-(2-(2,4-dioxotetrahydropyrimidin-1(2H)-yl)-1,3-dioxoisoindolin-5-yl)-2,5-diazabicyclo[2.2.1]heptan-2-yl)methyl)cyclohexyl)-6-methoxy-2H-indazol-5-yl)-6-(trifluoromethyl) picolinamide] | 20 to 40 | 15 to 20 | A (0%≤substrate protein remaining %≤80%) | – | – | – |
| COc1cc2nn([C@H]3CC[C@H](CN4CC5CCC(C4)N5c4ccc5c(c4)C(=O)N(N4CCC(=O)NC4=O)C5=O)CC3)cc2cc1NC(=O)c1cccc(C(F)(F)F)n1 [GT-08652, N-(2-((1r,4r)-4-((8-(2-(2,4-dioxotetrahydropyrimidin-1(2H)-yl)-1,3-dioxoisoindolin-5-yl)-3,8-diazabicyclo[3.2.1]octan-3-yl)methyl)cyclohexyl)-6-methoxy-2H-indazol-5-yl)-6-(trifluoromethyl) picolinamide] | 15 to 20 | 15 to 20 | A (0%≤substrate protein remaining %≤80%) | – | – | – |
| O=C1CCN(N2C(=O)c3ccc(N4CCC(CN5CCC(n6cc(NC(=O)c7coc(-c8ccnc(NCC9CC9)c8)n7)c(C(F)F)n6)CC5)CC4)cc3C2=O)C(=O)N1 [GT-04953, 2-(2-((cyclopropylmethyl)amino)pyridin-4-yl)-N-(3-(difluoromethyl)-1-(1-((1-(2-(2,4-dioxotetrahydropyrimidin-1(2H)-yl)-1,3-dioxoisoindolin-5-yl)piperidin-4-yl)methyl)piperidin-4-yl)-1H-pyrazol-4-yl) oxazole-4-carboxamide] | – | – | A (0%≤substrate protein remaining %≤80%) | 500 to 1000 | – | – |
| COc1cc2nn([C@H]3CC[C@H](CN4CCN(c5cc6c(cc5F)C(=O)N(N5CCC(=O)NC5=O)C6=O)CC4)CC3)cc2cc1NC(=O)c1cccc(C(F)(F)F)c1 [GT-08664, N-(2-((1r,4r)-4-((4-(2-(2,4-dioxotetrahydropyrimidin-1(2H)-yl)-6-fluoro-1,3-dioxoisoindolin-5-yl)piperazin-1-yl)methyl)cyclohexyl)-6-methoxy-2H-indazol-5-yl)-3-(trifluoromethyl)benzamide] | 20 to 40 | 15 to 20 | A (0%≤substrate protein remaining %≤80%) | – | – | – |
| O=C1CCN(N2C(=O)c3ccc(N4C[C@H]5C[C@@H]4CN5C[C@H]4CC[C@H](n5cc(NC(=O)c6cnn7ccc(N8C[C@H]9C[C@@H]8CO9)nc67)c(C(F)F)n5)CC4)cc3C2=O)C(=O)N1 [GT-05238, 5-((1R,4R)-2-oxa-5-azabicyclo[2.2.1]heptan-5-yl)-N-(3-(difluoromethyl)-1-((1R,4R)-4-(((1R,4R)-5-(2-(2,4-dioxotetrahydropyrimidin-1(2H)-yl)-1,3-dioxoisoindolin-5-yl)-2,5-diazabicyclo[2.2.1]heptan-2-yl)methyl)cyclohexyl)-1H-pyrazol-4-yl)pyrazolo[1,5-a]pyrimidine-3-carboxamide] | – | – | A (0%≤substrate protein remaining %≤80%) | – | 20 to 36 | 60 to 80 |
| O=C1CCN(N2C(=O)c3cccc(N4CCC(CN5CCN(c6ccc7c(c6)nc(NC(=O)c6cccc(C(F)(F)F)c6)n7[C@H]6CC[C@@H](CO)CC6)CC5)CC4)c3C2=O)C(=O)N1 [GT-05325, N-(5-(4-((1-(2-(2,4-dioxotetrahydropyrimidin-1(2H)-yl)-1,3-dioxoisoindolin-4-yl)piperidin-4-yl)methyl)piperazin-1-yl)-1-((1s,4s)-4-(hydroxymethyl)cyclohexyl)-1H-benzo[d]imidazol-2-yl)-3-(trifluoromethyl)benzamide] | – | – | A (0%≤substrate protein remaining %≤80%) | – | -15 to -10 | 60 to 80 |
| COc1cc2nn([C@H]3CC[C@H](CN4C[C@@H]5C[C@H]4CN5c4ccc5c(c4)C(=O)N(N4CCC(=O)NC4=O)C5=O)CC3)cc2cc1NC(=O)c1cccc(C(F)(F)F)n1 [GT-08648, N-(2-((1S,4r)-4-(((1S,4S)-5-(2-(2,4-dioxotetrahydropyrimidin-1(2H)-yl)-1,3-dioxoisoindolin-5-yl)-2,5-diazabicyclo[2.2.1]heptan-2-yl)methyl)cyclohexyl)-6-methoxy-2H-indazol-5-yl)-6-(trifluoromethyl) picolinamide] | 15 to 20 | 15 to 20 | A (0%≤substrate protein remaining %≤80%) | – | – | – |
| COc1cc2nn([C@H]3CC[C@H](CN4CCN(c5cc6c(cc5F)C(=O)N(N5CCC(=O)NC5=O)C6=O)CC4)CC3)cc2cc1NC(=O)c1cccc(C(F)(F)F)n1 [GT-08651, N-(2-((1r,4r)-4-((4-(2-(2,4-dioxotetrahydropyrimidin-1(2H)-yl)-6-fluoro-1,3-dioxoisoindolin-5-yl)piperazin-1-yl)methyl)cyclohexyl)-6-methoxy-2H-indazol-5-yl)-6-(trifluoromethyl) picolinamide] | 15 to 20 | 10 to 15 | A (0%≤substrate protein remaining %≤80%) | – | – | – |
| COc1cc2nn(C3CCN(CC4CCN(c5cccc6c5C(=O)N(N5CCC(=O)NC5=O)C6=O)CC4)CC3)cc2cc1NC(=O)c1cccc(C(F)(F)F)n1 [GT-05817, N-(2-(1-((1-(2-(2,4-dioxotetrahydropyrimidin-1(2H)-yl)-1,3-dioxoisoindolin-4-yl)piperidin-4-yl)methyl)piperidin-4-yl)-6-methoxy-2H-indazol-5-yl)-6-(trifluoromethyl) picolinamide] | – | – | A (0%≤substrate protein remaining %≤80%) | – | -5 to 0 | 50 to 60 |
